According to PubChem BioAssay (NCI):
Values joined by “and” are separate entries in the source; they are usually repeats but may differ in a detail not shown here. Equal values may be shown once.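 Briefly, cells in 96-well plates were exposed to five compound concentrations for 48 h, and endpoints were estimated by linear interpolation. GI50: concentration for 50% inhibition of growth. The concentration for full growth arrest is given as TGI.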

Test system: MDA-MB-468 breast
Test: NCI-60 cell line screen, 48 h

| Compound | GI50 | TGI |
| --- | --- | --- |
| Cn1cc(C2=C(c3cccc(Cl)c3)C(=O)NC2=O)c2ccccc21 | 4.48 µM | 24.6 µM |
| CCCCOc1nc2ccccc2cc1C1CNC(=O)c2ccccc2N1 (stereo not given) | 2.03 µM | 9.56 µM |
| Clc1ccc2c(NCCNc3nc(Cl)nc4ccccc34)ccnc2c1 | 0.583 µM | 2.03 µM |
| CCN(CC)Cc1cc(Nc2c3ccc(Cl)cc3nc3c(C)cccc23)ccc1O | 1.37 µM | 2.83 µM |
| H-KIFKKFKTIIKKVWRIFGRF-NH2 | 1.32 µM | 5.94 µM |
| CC(=O)O[C@H]1Cc2c([nH]c3ccccc23)[C@@H](c2ccc(Cl)cc2)N1C(=O)CCNC(C)(C)C | 3.18 µM | 7.67 µM |
| CCN(CC)CCn1nc2c3c(cccc3c1=O)-c1ccccc1-2 | 2.22 µM | 8.43 µM |
| O=C(Nc1ccc(I)cc1F)c1cc(F)ccc1O | 0.898 µM | 5.3 µM |
| Nc1ncn(C2OC(CO)C(O)C2O)c(=O)n1 (stereo not given) | 1.21 µM and 0.925 µM | 6.45 µM and 8.06 µM |
| NC(=S)c1cn(C2OC(CO)C(O)C2O)c2ncnc(N)c12 (stereo not given) | 0.0589 µM | 0.252 µM |
| O=C(Nc1ccc(Oc2cccc(Cl)c2)c(Cl)c1)c1cccnc1 | 0.565 µM | 4.15 µM |
| Nc1cc2ccncc2c2ccccc12 | 12.3 µM | 36.5 µM |
| CCN1CCN(c2nc(NNC(=O)c3cccc(OC)c3)nc(N3CCN(C(c4ccccc4)c4ccccc4)CC3)n2)CC1 | 1.91 µM | 4.92 µM |
| CCc1cc(Nc2nccc(-c3c(-c4ccc(OC)c(C(=O)Nc5c(F)cccc5F)c4)nc4ccccn34)n2)c(OC)cc1N1CCC(N2CCN(S(C)(=O)=O)CC2)CC1 | > 82.7 µM | > 100 µM |
| COc1cc(C2CC(c3cc(Cl)c(C)cc3O)=NN2c2ccc(S(N)(=O)=O)cc2)cc(OC)c1OC (stereo not given) | 2.64 µM | 9.07 µM |
| O=C(CN1CCN(c2cc3c(cc2F)c(=O)c(C(=O)O)cn3C2CC2)CC1)Nc1ccc(C(=O)/C=C/c2ccccc2)cc1 | 2.45 µM | 23.2 µM |
| CCOC(=O)Nc1ccc2nc(Sc3ccc(Cl)cc3)sc2c1 | 0.719 µM | 3.67 µM |
| CCN(CC)c1ccc(/C=C2/NC(=O)NC2=O)cc1 | 0.981 µM | 7.84 µM |
| CO[C@H]1/C=C/C=C/C=C/C[C@H](OC(=O)[C@@H](C)NC(=O)C2CCCCC2)[C@H](C)[C@@H](O)/C(C)=C\CCC2=CC(=O)C=C(NC(=O)C1)C2=O | 0.142 µM | 0.74 µM |
| Cn1cc(C2=C(c3cn(C)c4cc(Cl)ccc34)C(=O)NC2=O)c2ccccc21 | 0.0744 µM | 5.96 µM |
| Cc1cncc2cccc(S(=O)(=O)N3CCCNC[C@@H]3C)c12 | 19 µM | > 91.1 µM |

| Compound | GI50 | TGI |
| --- | --- | --- |
| Cc1cccc(Cc2cnc(NC(=O)/C=C/c3ccco3)s2)c1 | 0.0407 µM | 13.2 µM |
| COc1ccc(C2C3=C(COC3=O)N(CCO)c3cc4c(cc32)CCC4)cc1OC (stereo not given) | 0.184 µM |  |
| COc1cc2cc(Oc3ccc(NC(=O)Nc4cc(C(F)(F)F)cc(C(F)(F)F)c4)cc3)c(C)nc2cc1OCCN1CCCCC1 | 1.67 µM | 3.32 µM |
| COc1ccc(C(=O)C(CN(C)C)c2ccccc2)cc1 (stereo not given) | 1.93 µM | 4.96 µM |
| O=C(N/N=C\c1cc(Br)cc(Br)c1O)N/N=C/c1cc(Br)cc(Br)c1O | 3.13 µM | 8.85 µM |
| Cc1ccc(/C=C2\CN(C(=O)CCN3CCC(=NO)CC3)C/C(=C\c3ccc(C)cc3)C2=O)cc1 | 1.46 µM | 3.46 µM |
| Fc1ccc(-c2ncn(C3CCNCC3)c2-c2ccnc(Oc3ccc(Oc4ccccc4)cc3)n2)cc1 | 1.94 µM | 5.57 µM |
| Nc1ccc(Sc2ccc3c4c2cccc4c(=O)n2c4ccccc4nc32)cc1 | 3.19 µM | 20.8 µM |
| CCN(Cc1cccc(C)c1)c1ccc(CO)c(Cl)c1 | 0.0362 µM | 0.134 µM |
| COC(=O)C1=C(C)NC(C)=C(C(=O)OC)C1c1ccccc1[N+](=O)[O-] | 25.3 µM | > 100 µM |
| COC(=O)[C@@H](C)C[C@H](Cc1ccccc1)NC(=O)c1csc([C@@H](C[C@H](C(C)C)N(C)C(=O)[C@@H](NC(=O)CN(C)C)C2CC2)OC(C)=O)n1 | 0.00658 µM |  |
| CCn1c(-c2nonc2N)nc2c(C#CC(C)(C)O)ncc(OCC3CCNCC3)c21 | 0.336 µM | > 25 µM |
| N#CCCCCCn1c2ccccc2c2c3c(c4c5ccccc5[nH]c4c21)C(=O)N(O)C3=O | 1.48 µM | 5.98 µM |
| CN1CCN(Cc2ccc(NC(=O)c3cncc(C#Cc4cncc5[nH]ncc45)c3)cc2C(F)(F)F)CC1 | 1.08 µM | 4.08 µM |
| Cc1cc2nc3c4cc(Cl)ccc4n(CC(=O)NCCN(C)C)c3nc2cc1C | 11.3 µM | 23.8 µM |
| O=C(c1nc2ccccc2[nH]1)C1C(c2cccc([N+](=O)[O-])c2)C2CC3CCCCC3N2[C@@]12C(=O)Nc1cc(Cl)ccc12 (stereo not given in full) | 1.39 µM | 4 µM |
| Cn1cc(-c2nnc(N)nc2-c2c[nH]c3ccc(F)cc23)c2cc(Br)ccc21 | 1.24 µM | 7.75 µM |
| Cn1ccnc1C(=O)/C=C/c1ccc(CC(=O)Nc2cc(F)c(F)c(F)c2)cc1 | 0.636 µM | 1.96 µM |
| COc1ccc(Nc2ccnc3cc(Cl)ccc23)cc1CN(CCCl)CCCl | 0.195 µM | 0.84 µM |
| c1ccc(-c2nn(-c3ccccc3)[n+](-c3ccccc3-c3ccccc3)n2)cc1 | 0.189 µM | 0.923 µM |
